ChEMBL document CHEMBL5518166, “Exploring thienothiadiazine dioxides as isosteric analogues of benzo- and pyridothiadiazine dioxides in the search of new AMPA and kainate receptor positive allosteric modulators” (Eur J Med Chem, 2024)
The source made the active and inactive calls. The rule behind the calls is not given here.

Columns and labels:
[1] = molecular target: Glutamate receptor ionotropic kainate 2 (Homo sapiens) (UniProt Q13002); assay: Positive allosteric modulation at kainate receptor in HEK293 cells expressing GluK2-Q2a assessed as glutamate induced calcium influx by measuring efficacy relative to control; conditions: filed as positive allosteric modulator
Chain of Glutamate receptor ionotropic kainate 2 (Homo sapiens) (Q13002 whole entry, looked up): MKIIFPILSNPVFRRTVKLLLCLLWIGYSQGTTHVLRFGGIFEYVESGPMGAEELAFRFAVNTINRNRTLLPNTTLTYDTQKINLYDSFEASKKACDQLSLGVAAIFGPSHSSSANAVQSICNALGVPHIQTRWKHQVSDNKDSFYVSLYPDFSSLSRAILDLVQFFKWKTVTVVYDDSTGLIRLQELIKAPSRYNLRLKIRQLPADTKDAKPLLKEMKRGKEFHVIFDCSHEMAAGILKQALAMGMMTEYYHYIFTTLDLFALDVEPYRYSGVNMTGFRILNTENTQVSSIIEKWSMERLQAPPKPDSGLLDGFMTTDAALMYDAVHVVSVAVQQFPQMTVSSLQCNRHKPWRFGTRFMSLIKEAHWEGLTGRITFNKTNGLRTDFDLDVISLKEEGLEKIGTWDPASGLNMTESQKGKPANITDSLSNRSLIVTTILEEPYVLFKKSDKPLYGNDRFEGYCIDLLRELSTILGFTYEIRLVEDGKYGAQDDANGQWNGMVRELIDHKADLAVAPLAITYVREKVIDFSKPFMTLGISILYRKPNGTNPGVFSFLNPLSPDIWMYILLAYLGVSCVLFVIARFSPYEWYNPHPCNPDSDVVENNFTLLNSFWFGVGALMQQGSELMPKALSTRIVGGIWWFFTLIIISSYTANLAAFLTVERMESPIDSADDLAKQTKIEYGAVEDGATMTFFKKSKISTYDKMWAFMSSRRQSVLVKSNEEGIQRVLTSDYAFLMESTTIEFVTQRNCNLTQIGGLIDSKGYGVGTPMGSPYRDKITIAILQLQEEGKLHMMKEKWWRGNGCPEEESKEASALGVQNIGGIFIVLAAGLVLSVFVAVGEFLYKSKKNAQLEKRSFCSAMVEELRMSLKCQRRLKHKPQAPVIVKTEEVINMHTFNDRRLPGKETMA

[2] = molecular target: T1, Glutamate receptor ionotropic, AMPA (Rattus norvegicus) (UniProt P19491+P19492+P19493+P19490); assay: Positive allosteric modulation at AMPAR in rat Primary embryonic cortical cell assessed as concentration required for 2 fold increase in AMPA induced fluorescence by FlipR assay; assay type: cell-based; conditions: filed as positive allosteric modulator
[3] = molecular target: Glutamate receptor ionotropic AMPA (Homo sapiens, UniProt P42261+P42262+P42263+P48058); assay: Positive allosteric modulation at AMPAR in HEK293 cells expressing GluA2Qi subunit assessed as glutamate induced calcium influx; assay type: cell-based
[4] = molecular target: Glutamate receptor ionotropic AMPA (Homo sapiens) (UniProt P48058+P42263+P42262+P42261); assay: Positive allosteric modulation at AMPAR in HEK293 cells expressing GluA2 assessed as glutamate induced calcium influx by measuring efficacy relative to control; assay type: cell-based; conditions: filed as positive allosteric modulator
[5] = molecular target: Glutamate receptor ionotropic kainate 1 (Homo sapiens) (UniProt P39086); assay: Positive allosteric modulation at kainate receptor in HEK293 cells expressing GluK1-Q1b assessed as glutamate induced calcium influx by measuring efficacy relative to control; conditions: filed as positive allosteric modulator
Chain of Glutamate receptor ionotropic kainate 1 (Homo sapiens) (P39086 whole entry, looked up): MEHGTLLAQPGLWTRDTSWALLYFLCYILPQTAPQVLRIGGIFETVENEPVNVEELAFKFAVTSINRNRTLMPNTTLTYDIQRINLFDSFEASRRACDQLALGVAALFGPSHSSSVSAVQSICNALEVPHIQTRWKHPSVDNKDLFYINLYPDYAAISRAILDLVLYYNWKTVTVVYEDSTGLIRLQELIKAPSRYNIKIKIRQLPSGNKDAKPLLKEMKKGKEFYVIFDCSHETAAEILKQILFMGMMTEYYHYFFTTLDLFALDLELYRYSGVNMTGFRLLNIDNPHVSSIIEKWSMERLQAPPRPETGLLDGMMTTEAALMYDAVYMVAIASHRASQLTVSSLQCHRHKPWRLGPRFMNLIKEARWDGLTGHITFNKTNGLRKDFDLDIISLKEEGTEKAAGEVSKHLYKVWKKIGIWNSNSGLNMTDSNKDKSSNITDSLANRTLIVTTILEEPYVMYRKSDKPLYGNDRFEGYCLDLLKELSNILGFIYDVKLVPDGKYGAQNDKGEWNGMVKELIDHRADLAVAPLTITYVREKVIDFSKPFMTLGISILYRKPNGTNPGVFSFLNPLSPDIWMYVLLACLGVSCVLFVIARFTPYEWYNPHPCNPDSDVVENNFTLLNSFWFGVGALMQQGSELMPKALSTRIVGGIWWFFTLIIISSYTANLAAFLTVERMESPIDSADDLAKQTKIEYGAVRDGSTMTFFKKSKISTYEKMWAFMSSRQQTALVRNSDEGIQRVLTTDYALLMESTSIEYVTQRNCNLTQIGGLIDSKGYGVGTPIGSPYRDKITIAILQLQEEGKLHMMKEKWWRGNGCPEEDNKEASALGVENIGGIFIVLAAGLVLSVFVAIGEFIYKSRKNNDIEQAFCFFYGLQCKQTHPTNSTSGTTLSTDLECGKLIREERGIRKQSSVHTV

[6] = molecular target: T1, Glutamate receptor ionotropic, AMPA (Rattus norvegicus); assay: Positive allosteric modulation at AMPAR in rat Primary embryonic cortical cell assessed as concentration required for 2 fold increase in AMPA induced fluorescence by FDSS fluorescence assay; assay type: cell-based; conditions: Cerebral cortex cell, filed as positive allosteric modulator
[7] = Toxicity in NMR1 mouse assessed as effect on hypothermia at 30 mg/kg measured upto 180 mins; assay type: organism-based; conditions: in vivo, 3 h
[8] = molecular target: T1, Glutamate receptor ionotropic, AMPA (Rattus norvegicus); assay: Positive allosteric modulation at AMPAR in rat Primary embryonic cortical cell assessed as concentration required for 2 fold increase in AMPA induced fluorescence; assay type: cell-based; conditions: filed as positive allosteric modulator
Mus musculus [9] = assay: Cognition enhancing effect in CD1 mouse assessed as increase in exploration time spent on new object at 3 mg/kg, po measured after 1 hr by object recognition test (reference value: 35%); assay type: functional
Mus musculus [10] = assay: Cognition enhancing effect in CD1 mouse assessed as increase in exploration time spent on new object at 1 mg/kg, po measured after 1 hr by object recognition test (reference value: 35%); assay type: functional
[11] = Toxicity in NMR1 mouse assessed as effect on hypothermia at 100 mg/kg measured upto 180 mins; assay type: organism-based; conditions: in vivo, 3 h
Rattus norvegicus = assay: Cognition enhancing effect in Wistar rat assessed as increase in amplitude of initial post-synaptic response at 30 mg/kg, ip pretreated for 1 hr followed by tetanic stimulation and measured for 3 hrs; assay type: functional, organism-based; conditions: time 4.0 hrs
[12] = Toxicity in NMR1 mouse assessed as pro-convulsant effect at 100 mg/kg measured upto 180 mins; assay type: organism-based; conditions: in vivo, 3 h
[13] = molecular target: T1, Glutamate receptor ionotropic, AMPA (Rattus norvegicus); assay: Positive allosteric modulation of rat cortex AMPAR expressed in xenopus oocytes assessed as concentration required for 2 fold increase in AMPA induced […]; assay type: cell-based; conditions: Oocyte, filed as positive allosteric modulator

| Compound | Efficacy [1] | EC [2] | EC50 [3] | Efficacy [5] | other results |
| --- | --- | --- | --- | --- | --- |
| C=CCN1CNS(=O)(=O)c2sc(Cl)cc21 | 80% | 18.5 µM | 26.9 µM | 112% | Activity [4]: 126% |
| O=S1(=O)NCN(C2CC2)c2cc(Cl)sc21 | 80% | – | 4.7 µM | 50% | EC [6]: 0.24 µM; Activity [4]: 126%; Activity [7]: Toxic |
| O=S1(=O)NCN(C2CC2)c2ccc(F)cc21 | – | – | – | – | EC [8]: 0.27 µM; Activity [4]: 100% |
| O=S1(=O)CCC(C2CC2)c2ccc(F)cc21 (centres undefined) | – | – | – | – | EC [8]: 2.2 µM |
| O=S1(=O)NC2CCCN2c2cc(Cl)sc21 (centres undefined) | – | – | – | – | Activity (Mus musculus [9]): 69%; Activity (Mus musculus [10]): 82%; Activity [11]: Non-Toxic; Activity (Rattus norvegicus): Active; Activity [12]: Non-Toxic |
| C=CCN1CN(C)S(=O)(=O)c2sc(Cl)cc21 | – | 80.4 µM | 76.5 µM | – | – |
| O=S1(=O)N[C@H]2CCCN2C2CCCCC21 (some centres undefined) | – | – | – | – | EC [13]: 24.6 µM |
| CCN1c2cc(Cl)sc2S(=O)(=O)N(C)C1C (centres undefined) | 60% | 6.4 µM | 24.6 µM | 50% | – |

Second part, led by results:

| Efficacy [1] | EC [2] | EC50 [3] | Efficacy [5] | Compound | other results |
| --- | --- | --- | --- | --- | --- |
| – | 40.1 µM | > 100 µM | – | CN1C2CCCN2c2cc(Cl)sc2S1(=O)=O (centres undefined) | – |
| 60% | – | 31.5 µM | 50% | CC1N(CC(F)F)c2cc(Cl)sc2S(=O)(=O)N1C (centres undefined) | EC [6]: 1.2 µM |
| – | – | 39.9 µM | – | CN1CN(CC(F)F)c2cc(Cl)sc2S1(=O)=O | EC [6]: 24.5 µM |
